Source: patent publication US6737383B1, “Herbicidal oxadiazolidines” (priority 1999, dated 2004)

How the values were obtained:
[1] = system: morningglory; experiment: Test B pre/postemergence morningglory; format: in vivo, Ipomoea hederacea
How it was run: (§1)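 Response is a visual 0-to-10 score relative to untreated plants, where 0 means no effect and 10 means complete control, taken twelve to sixteen days after application. Treatments went onto soil at planting and onto foliage of 1- to 4-leaf plants, using a surfactant-containing non-phytotoxic solvent.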

[2] = system: smallflower flatsedge; experiment: Test B flood test smallflower flatsedge; format: in vivo, Cyperus difformis
How it was run: (§2)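 Each value is a visual injury score relative to controls, with 10 meaning complete control and 0 no effect. Evaluation took place twelve to sixteen days after the 2-leaf-stage plants were treated and kept in the greenhouse.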

[3] = system: surinam grass; experiment: Test B pre/postemergence surinam grass; format: in vivo, Brachiaria decumbens
How it was run: as §1

[4] = system: rice; experiment: Test B flood test rice; format: in vivo, Oryza sativa
How it was run: as §2

[5] = system: purple nutsedge; experiment: Test B pre/postemergence purple nutsedge; format: in vivo, Cyperus rotundus
How it was run: as §1

[6] = system: bamyardgrass; experiment: Test B flood test barnyardgrass; format: in vivo, Echinochloa crus-galli
How it was run: as §2

[7] = system: sugar beet; experiment: Test B pre/postemergence sugar beet; format: in vivo, Beta vulgaris
How it was run: as §1

[8] = system: blackgrass; experiment: Test B pre/postemergence blackgrass; format: in vivo, Alopecurus myosuroides
How it was run: as §1

[9] = system: corn; experiment: Test B pre/postemergence corn; format: in vivo, Zea mays
How it was run: as §1

[10] = system: velvetleaf; experiment: Test B pre/postemergence velvetleaf; format: in vivo, Abutilon theophrasti
How it was run: as §1

[11] = system: bedstraw; experiment: Test B pre/postemergence bedstraw; format: in vivo, Galium aparine
How it was run: as §1

[12] = system: pigweed; experiment: Test B pre/postemergence pigweed; format: in vivo, Amaranthus retroflexus
How it was run: as §1

[13] = system: wild oat; experiment: Test B pre/postemergence wild oat; format: in vivo, Avena fatua
How it was run: as §1

[14] = system: cocklebur; experiment: Test B pre/postemergence cocklebur; format: in vivo, Xanthium strumarium
How it was run: as §1

[15] = system: rape; experiment: Test B pre/postemergence rape; format: in vivo, Brassica napus
How it was run: as §1

[16] = system: soybean; experiment: Test B pre/postemergence soybean; format: in vivo, Glycine max
How it was run: as §1

[17] = Postemergence, Rate 62 g/ha, scale 0 to 10, 0 is no effect, 10 is complete control
[18] = Postemergence, Rate 250 g/ha, scale 0 to 10, 0 no effect, 10 complete control
[19] = Preemergence, Rate 62 g/ha, scale 0 to 10 (0 no effect, 10 complete control)
[20] = Preemergence, Rate 125 g/ha, scale 0 to 10 (0 no effect, 10 complete control)
[21] = Preemergence, Rate 250 g/ha, scale of 0 to 10 where 0 is no effect and 10 is complete control
[22] = Preemergence, Rate 500 g/ha, scale 0 (no effect) to 10 (complete control)
[23] = Rate 125 g/ha, Postemergence, scale 0 to 10, 0 no effect, 10 complete control
[24] = Rate 500 g/ha, Postemergence, scale 0 to 10, 0 no effect, 10 complete control
[25] = Rate 125 g/ha, Postemergence section (flood test species), scale 0 to 10, 0 no effect, 10 complete control
[26] = Rate 500 g/ha, listed under Postemergence (flood test species), scale 0 to 10, 0 no effect, 10 complete control
[27] = flood test, listed under Postemergence, Rate 250 g/ha, scale 0 to 10, 0 no effect, 10 complete control

SMILES: CCN(C(=O)n1oc(=O)n(Cc2cccs2)c1=O)C1CCCCC1 [Compound 82]
- Morningglory plant response rating [1, 17]: 4
- Morningglory plant response rating [1, 18]: 10
- Morningglory plant response rating [1, 19]: 0
- Plant response rating, Morningglory [1, 20]: 0
- Plant response rating, Morningglory [1, 21]: 0
- Morningglory plant response rating [1, 22]: 0
- Morningglory plant response rating [1, 23]: 7
- Morningglory plant response rating [1, 24]: 10
- S. Flatsedge plant response rating [2, 17]: 0
- S. Flatsedge plant response rating [2, 25]: 0
- S. Flatsedge plant response rating [2, 26]: 0
- S. Flatsedge plant response rating [2, 27]: 0
- B. signalgrass plant response rating [3, 17]: 0
- B. signalgrass plant response rating [3, 18]: 0
- B. signalgrass plant response rating [3, 19]: 0
- Plant response rating, B. signalgrass [3, 20]: 0
- Plant response rating, B. signalgrass [3, 21]: 0
- B. signalgrass plant response rating [3, 22]: 0
- B. signalgrass plant response rating [3, 23]: 0
- B. signalgrass plant response rating ([3]; Rate 500 g/ha, Postemergence, scale of 0 to 10 where 0 is no effect and 10 is complete control): 0
- Rice plant response rating [4, 17]: 0
- Rice plant response rating [4, 25]: 0
- Rice plant response rating [4, 26]: 0
- Rice plant response rating [4, 27]: 0
- Nutsedge plant response rating [5, 17]: 0
- Nutsedge plant response rating [5, 18]: 0
- Nutsedge plant response rating [5, 19]: 0
- Plant response rating, Nutsedge [5, 20]: 0
- Plant response rating, Nutsedge [5, 21]: 0
- Nutsedge plant response rating [5, 22]: 0
- Nutsedge plant response rating [5, 23]: 0
- Nutsedge plant response rating [5, 24]: 0
- Barnyardgrass plant response rating [6, 17]: 0
- Barnyardgrass plant response rating [6, 25]: 0
- Barnyardgrass plant response rating [6, 26]: 0
- Barnyardgrass plant response rating [6, 27]: 0
- Sugarbeets plant response rating [7, 17]: 0
- Sugarbeets plant response rating [7, 18]: 0
- Sugarbeets plant response rating [7, 19]: 0
- Plant response rating, Sugarbeets [7, 20]: 0
- Plant response rating, Sugarbeets [7, 21]: 0
- Sugarbeets plant response rating [7, 22]: 0
- Sugarbeets plant response rating [7, 23]: 0
- Sugarbeets plant response rating [7, 24]: 2
- Blackgrass plant response rating [8, 17]: 0
- Blackgrass plant response rating [8, 18]: 0
- Blackgrass plant response rating [8, 19]: 0
- Plant response rating, Blackgrass [8, 20]: 0
- Plant response rating, Blackgrass [8, 21]: 0
- Blackgrass plant response rating [8, 22]: 0
- Blackgrass plant response rating [8, 23]: 0
- Blackgrass plant response rating [8, 24]: 3
- Corn plant response rating [9, 17]: 0
- Corn plant response rating [9, 18]: 0
- Corn plant response rating [9, 19]: 0
- Plant response rating, Corn [9, 20]: 0
- Plant response rating, Corn [9, 21]: 0
- Corn plant response rating [9, 22]: 0
- Corn plant response rating [9, 23]: 0
- Corn plant response rating [9, 24]: 0
- Velvetleaf plant response rating [10, 17]: 0
- Velvetleaf plant response rating [10, 18]: 0
- Velvetleaf plant response rating [10, 19]: 0
- Plant response rating, Velvetleaf [10, 20]: 0
- Plant response rating, Velvetleaf [10, 21]: 0
- Velvetleaf plant response rating [10, 22]: 0
- Velvetleaf plant response rating [10, 23]: 0
- Velvetleaf plant response rating [10, 24]: 0
- Bedstraw plant response rating [11, 17]: 0
- Bedstraw plant response rating [11, 18]: 0
- Bedstraw plant response rating [11, 19]: 0
- Plant response rating, Bedstraw [11, 20]: 0
- Plant response rating, Bedstraw [11, 21]: 0
- Bedstraw plant response rating [11, 22]: 0
- Bedstraw plant response rating [11, 23]: 0
- Bedstraw plant response rating [11, 24]: 1
- Redroot pigweed plant response rating [12, 17]: 0
- Redroot pigweed plant response rating [12, 18]: 0
- Redroot pigweed plant response rating [12, 19]: 0
- Plant response rating, Redroot pigweed [12, 20]: 0
- Plant response rating, Redroot pigweed [12, 21]: 0
- Redroot pigweed plant response rating [12, 22]: 0
- Redroot pigweed plant response rating [12, 23]: 0
- Redroot pigweed plant response rating [12, 24]: 0
- Wild oats plant response rating [13, 17]: 0
- Wild oats plant response rating [13, 18]: 0
- Wild oats plant response rating [13, 19]: 0
- Plant response rating, Wild oats [13, 20]: 0
- Plant response rating, Wild oats [13, 21]: 0
- Wild oats plant response rating [13, 22]: 0
- Wild oats plant response rating [13, 23]: 0
- Wild oats plant response rating [13, 24]: 0
- Cocklebur plant response rating [14, 17]: 0
- Cocklebur plant response rating [14, 18]: 0
- Cocklebur plant response rating [14, 19]: 0
- Plant response rating, Cocklebur [14, 20]: 0
- Plant response rating, Cocklebur [14, 21]: 0
- Cocklebur plant response rating [14, 22]: 0
- Cocklebur plant response rating [14, 23]: 0
- Cocklebur plant response rating [14, 24]: 0
- Rape plant response rating [15, 17]: 0
- Rape plant response rating [15, 18]: 0
- Rape plant response rating [15, 19]: 0
- Plant response rating, Rape [15, 20]: 0
- Plant response rating, Rape [15, 21]: 0
- Rape plant response rating [15, 22]: 0
- Rape plant response rating [15, 23]: 0
- Rape plant response rating [15, 24]: 0
- Soybean plant response rating [16, 17]: 0
- Soybean plant response rating [16, 18]: 0
- Soybean plant response rating [16, 19]: 0
- Plant response rating, Soybean [16, 20]: 0
- Plant response rating, Soybean [16, 21]: 0
- Soybean plant response rating [16, 22]: 0
- Soybean plant response rating [16, 23]: 0
- Soybean plant response rating [16, 24]: 1
